Test results taken from paper PMC3781056, “New Pyrazolopyrimidine Inhibitors of Protein Kinase D as Potent Anticancer Agents for Prostate Cancer Cells” (PLoS ONE, 2013).
Read-outs that look alike come from different tables or passages of the source.

Tests used:
[1] = target: T1, PKD1 (Homo sapiens, UniProt Q15139); assay: Radiometric PKD kinase assay, 10-point IC50; format: biochemical
T1 construct: GST; purchased Enzo Life sciences (Farmingdale, NY)
T1 sequence (Q15139 1-912): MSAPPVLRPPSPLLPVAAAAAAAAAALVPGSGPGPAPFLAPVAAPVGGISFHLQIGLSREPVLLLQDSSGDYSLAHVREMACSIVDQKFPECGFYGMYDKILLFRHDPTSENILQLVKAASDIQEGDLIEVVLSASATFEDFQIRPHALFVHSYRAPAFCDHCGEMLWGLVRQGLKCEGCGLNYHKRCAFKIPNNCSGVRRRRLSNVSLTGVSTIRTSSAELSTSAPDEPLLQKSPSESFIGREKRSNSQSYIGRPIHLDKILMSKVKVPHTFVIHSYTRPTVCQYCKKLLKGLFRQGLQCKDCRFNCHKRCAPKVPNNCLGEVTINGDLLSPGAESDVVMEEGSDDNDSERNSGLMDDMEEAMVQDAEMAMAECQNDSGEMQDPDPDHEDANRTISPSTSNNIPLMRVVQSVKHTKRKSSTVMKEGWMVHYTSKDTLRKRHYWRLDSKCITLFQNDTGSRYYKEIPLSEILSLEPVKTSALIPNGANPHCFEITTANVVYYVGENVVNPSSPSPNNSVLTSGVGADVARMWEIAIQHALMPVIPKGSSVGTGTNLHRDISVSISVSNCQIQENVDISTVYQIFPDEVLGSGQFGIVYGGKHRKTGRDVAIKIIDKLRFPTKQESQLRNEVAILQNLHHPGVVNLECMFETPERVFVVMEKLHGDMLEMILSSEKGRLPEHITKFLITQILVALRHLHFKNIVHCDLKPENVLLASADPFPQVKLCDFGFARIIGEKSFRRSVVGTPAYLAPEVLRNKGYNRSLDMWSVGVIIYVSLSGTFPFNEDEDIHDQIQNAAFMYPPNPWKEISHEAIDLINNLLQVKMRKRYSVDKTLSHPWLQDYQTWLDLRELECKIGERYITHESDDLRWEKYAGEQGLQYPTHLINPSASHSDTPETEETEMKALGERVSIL
Experimental: Phosphorylation of HDAC5 was detected in a kinase reaction having 1 µCi [γ-^32P] […] The reaction was incubated at 30°C for 10 minutes and 25 µL of the reaction was spotted on Whatman P81 filter paper. The filter paper was washed 3 times in 0.5% phosphoric acid, air dried and counted using Beckman LS6500 multipurpose scintillation counter. Percent PKD1 inhibition was graphed using GraphPad Prism software 5.0.

[2] = target: T2, Recombinant human PKD2 (Homo sapiens, UniProt Q9BZL6); assay: Radiometric PKD kinase assay, 10-point IC50; format: biochemical
T2 sequence (Q9BZL6 1-878): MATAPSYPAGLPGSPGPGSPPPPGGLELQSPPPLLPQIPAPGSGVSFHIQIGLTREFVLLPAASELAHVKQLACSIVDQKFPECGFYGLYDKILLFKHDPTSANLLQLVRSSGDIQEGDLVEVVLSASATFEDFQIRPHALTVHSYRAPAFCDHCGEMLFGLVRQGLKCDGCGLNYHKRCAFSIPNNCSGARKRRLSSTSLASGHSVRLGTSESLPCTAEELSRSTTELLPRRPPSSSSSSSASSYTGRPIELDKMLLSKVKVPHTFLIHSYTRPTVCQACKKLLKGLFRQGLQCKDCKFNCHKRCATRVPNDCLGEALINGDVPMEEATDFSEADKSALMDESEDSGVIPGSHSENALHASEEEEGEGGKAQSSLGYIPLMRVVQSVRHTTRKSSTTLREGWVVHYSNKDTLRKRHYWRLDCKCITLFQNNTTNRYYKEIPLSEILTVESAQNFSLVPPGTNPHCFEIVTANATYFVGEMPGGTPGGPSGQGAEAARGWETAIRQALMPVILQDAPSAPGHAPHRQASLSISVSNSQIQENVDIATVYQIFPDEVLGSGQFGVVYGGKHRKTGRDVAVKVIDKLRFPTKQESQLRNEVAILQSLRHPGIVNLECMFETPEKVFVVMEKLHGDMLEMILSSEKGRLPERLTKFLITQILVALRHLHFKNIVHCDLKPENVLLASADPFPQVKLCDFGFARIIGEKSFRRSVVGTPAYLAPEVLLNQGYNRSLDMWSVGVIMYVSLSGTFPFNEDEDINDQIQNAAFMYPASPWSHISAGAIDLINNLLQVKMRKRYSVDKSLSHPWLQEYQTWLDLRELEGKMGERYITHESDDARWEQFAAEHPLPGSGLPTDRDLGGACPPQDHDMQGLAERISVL
Experimental: Recombinant human PKD1, 2, or 3 proteins were incubated in a mixture containing a peptide substrate derived from a PKD substrate, HDAC-5, and 10 different concentrations of the two compounds.
The IC50 values were calculated as the mean ±SEM of at least three independent experiments with triplicate determinations at each concentration of drug in each experiment. The data were plotted as a function of drug concentration and a representative graph is shown.

[3] = tested on: DU145 cells infected with Adv-PKD1 or Adv-PKD3; format: cell-based
Experimental: After 20 h, noninvasive cells were removed and invasive cells were fixed in 100% methanol, stained in 0.4% hematoxylin solution, and photographed. The number of cells that invaded the Matrigel matrix was determined by cell counts in 6 fields relative to the number of cells that migrated through the control insert. Percentage invasion was calculated as the percent of the cells invaded through Matrigel inserts vs. the total cells migrated through the control inserts. […] DU145 cells were infected with null, PKD1, and PKD3 adenoviruses (Adv-null, Adv-PKD1, and Adv-PKD3) at 100 MOI. After 24 h, cells were replated in control and Matrigel inserts, and a Matrigel invasion assay was conducted as described above. […] All the above experiments were repeated at least three times and data from a representative experiment are shown.

[4] = tested on: PC3 prostate cancer cells; assay: Cell proliferation assay (cell counts); format: cell-based; settings: 30 µM, starting at day 2 to day 6
Experimental: PKD has emerged as a promising therapeutic target for cancer. […] Cell proliferation was determined by treating the cells at 30 µM concentration of agent, and then cell number was counted for six consecutive days in the presence and absence of inhibitor.
PC3 cells were plated in triplicates in 24-well plates. Cells were allowed to attach overnight. […] Cells were counted daily for a total of 5 days. Fresh media and inhibitor were added every 2 days. The means of triplicate determinations were plotted over time. The experiment was repeated twice and results from one representative experiment are shown. […] PC3 cells were seeded into 96-well plates (3000 cells/well) and were then incubated in media containing 0.3–100 µM inhibitors for 72 h. MTT solution was added to each well and incubated for 4 h. Optical density was read at 570 nm to determine cell viability. The IC50 was determined as the mean of two independent experiments for each compound. C. […] Cell cycle distribution was determined by flow cytometry after propidium iodide labeling of fixed cells. Statistical significance was determined by unpaired t-test and is indicated. **, p<0.01; ***, p<0.001. […]
Proliferation of PC3 cells was measured by counting the number of viable cells upon trypan blue staining as previously described. […] The labeled cells were analyzed using a FACSCalibur flow cytometer (BD Biosciences).

SMILES	IC50 ([1]; mean ± SEM, read-out: IC50 PKD1) [nM]	IC50 ([1]; value in the figure, read-out: PKD1 IC50) [nM]	IC50 ([2]; mean ± SEM, read-out: IC50 PKD2) [nM]	IC50 ([2]; value in the figure, representative graph, read-out: PKD2 IC50) [nM]	IC50 ([2]; IC50 PKD2, mean ± SEM) [nM]	IC50 ([2]; PKD2 IC50, value printed in the figure, representative graph) [nM]	effect of PKD1 or PKD3 overexpression on inhibition of cell invasion [3]	effect on PC3 cell proliferation (cell counts) [4]
O=C(c1ccc(Nc2nccc(-c3cc4ccccc4s3)n2)cc1)N1CCC(N2CCCC2)CC1 [IKK-16, reference compound]	154	162	115	108				
CC(C)(C)n1nc(-c2cccc3ccccc23)c2c(N)ncnc21 [Compound 1-NA-PP1, 1-(t-Butyl)-3-(naphthalen-1-yl)-1H-pyrazolo[3,4-d]pyrimidin-4-amine]					133	133	completely reversed	drastic growth arrest
